The NIST ThermoML archive (doi:10.1016/j.jct.2013.09.018)

Key:
[1] = cn = amount concentration of the nth substance listed, in mol/dm3; conditions: 101 kPa, Liquid; for viscosity: Capillary tube (Ostwald / Ubbelohde) method; for mass density: Vibrating tube method
[2] = 101 kPa, Liquid; for viscosity: Capillary tube (Ostwald / Ubbelohde) method; for mass density: Vibrating tube method

CCCCn1cc[n+](C)c1C.F[B-](F)(F)F [1-butyl-2,3-dimethylimidazolium tetrafluoroborate] + CO
[1]
Conditions	mass density, c1 = 0.005 [kg/m3]	mass density, c1 = 0.01 [kg/m3]	mass density, c1 = 0.015 [kg/m3]	mass density, c1 = 0.02 [kg/m3]	viscosity, c1 = 0.005 [mPa·s]	viscosity, c1 = 0.01 [mPa·s]	viscosity, c1 = 0.015 [mPa·s]	viscosity, c1 = 0.02 [mPa·s]
298.15 K	787.59	788.04	788.45	788.96	0.552	0.5649	0.5747	0.5845
308.15 K	778.01	778.52	778.98	779.46	0.487	0.4978	0.5043	0.513
318.15 K	768.49	769.43	769.92	770.36	0.4271	0.436	0.4446	0.4532

CO [methanol]
[2]
Conditions	mass density [kg/m3]	viscosity [mPa·s]
298.15 K	786.61	0.545
308.15 K	777.15	0.476
318.15 K	767.74	0.4183

CO [methanol] + CCCCn1cc[n+](C)c1C.F[B-](F)(F)F
[1], c2 = 0
Conditions	mass density [kg/m3]	viscosity [mPa·s]
298.15 K	786.61	0.545
308.15 K	777.15	0.476
318.15 K	767.74	0.4183
